pEC50, pKi: −log10 of the molar value. One block for each molecule: values may come before it.
Columns and labels:
[1] = biological target: T1, Prostaglandin E2 receptor EP2 subtype (Homo sapiens, UniProt P43116); assay: Agonist activity at human recombinant EP2 receptor expressed in HEK293 cells assessed as effect on calcium accumulation by Fluo-4 AM dye based FLIPR assay; assay type: functional, cell-based
[2] = biological target: T1, Prostaglandin E2 receptor EP2 subtype; assay: Displacement of [3H]PGE2 from human EP2 receptor expressed in HEK293 cells at pH 7.3 membranes incubated for 60 mins; assay type: cell-based
Canis familiaris [3] = assay: Effect on ocular surface hyperemia in Beagle dog assessed as maximum ocular surface hyperemia score assigned value at 0.1% administered topically to one eye immediately after first intraocular pressure reading by pneumatonometry; assay type: functional, Canis lupus familiaris
Rhesus monkey [4] = assay: Reduction in intraocular pressure in monkey assessed as maximal change in intraocular pressure at 0.1% administered topically to one eye immediately after first intraocular pressure reading by pneumatonometry; assay type: functional, Macaca mulatta
Canis familiaris [5] = assay: Effect on ocular surface hyperemia in Beagle dog assessed as maximum ocular surface hyperemia score assigned value at 0.3% administered topically to one eye immediately after first intraocular pressure reading by pneumatonometry; assay type: functional, Canis lupus familiaris
Rhesus monkey [6] = assay: Reduction in intraocular pressure in monkey assessed as maximal change in intraocular pressure at 0.3% administered topically to one eye immediately after first intraocular pressure reading by pneumatonometry; assay type: functional, Macaca mulatta
Rhesus monkey [7] = assay: Reduction in intraocular pressure in monkey assessed as maximal change in intraocular pressure at 0.01% administered topically to one eye immediately after first intraocular pressure reading by pneumatonometry; assay type: functional, Macaca mulatta
[8] = biological target: Prostaglandin E2 receptor EP4 subtype (Homo sapiens, UniProt P35408); assay: Displacement of [3H]PGE2 from human EP4 receptor expressed in HEK293 cells membranes incubated for 60 mins; assay type: cell membranes
Prostaglandin E2 receptor EP4 subtype, sequence (P35408 whole entry): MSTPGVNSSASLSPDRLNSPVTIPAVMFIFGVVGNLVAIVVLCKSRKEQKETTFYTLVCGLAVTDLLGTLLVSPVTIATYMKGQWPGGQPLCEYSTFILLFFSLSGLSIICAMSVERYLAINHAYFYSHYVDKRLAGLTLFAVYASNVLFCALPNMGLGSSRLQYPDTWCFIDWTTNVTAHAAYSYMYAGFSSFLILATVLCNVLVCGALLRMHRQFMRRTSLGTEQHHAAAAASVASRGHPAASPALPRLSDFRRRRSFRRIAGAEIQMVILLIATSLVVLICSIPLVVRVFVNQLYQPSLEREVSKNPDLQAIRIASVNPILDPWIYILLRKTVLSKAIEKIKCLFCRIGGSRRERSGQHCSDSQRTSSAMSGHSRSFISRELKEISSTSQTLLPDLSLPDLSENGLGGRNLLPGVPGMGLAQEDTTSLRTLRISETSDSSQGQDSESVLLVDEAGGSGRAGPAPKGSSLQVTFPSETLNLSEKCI

T1 sequence (P43116 whole entry): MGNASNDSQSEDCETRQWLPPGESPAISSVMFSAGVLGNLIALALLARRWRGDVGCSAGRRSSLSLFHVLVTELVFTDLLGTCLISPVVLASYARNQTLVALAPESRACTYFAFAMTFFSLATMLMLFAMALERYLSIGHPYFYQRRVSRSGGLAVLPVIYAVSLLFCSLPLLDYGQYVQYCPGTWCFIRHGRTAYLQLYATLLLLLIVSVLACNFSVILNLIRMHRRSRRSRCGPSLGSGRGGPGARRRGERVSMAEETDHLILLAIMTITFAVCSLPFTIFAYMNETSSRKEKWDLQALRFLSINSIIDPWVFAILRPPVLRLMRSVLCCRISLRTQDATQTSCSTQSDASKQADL

pEC50 ([1]; hek293): 4.30
pKi ([2]; hek293): 4.30
Structure (SMILES): CCCCCC(O)c1ccc([C@H]2CC[C@@H](Cl)[C@@H]2CCCCCCC(=O)OC)cc1 (stereo partly specified)

Structure (SMILES): O=C(O)CCC/C=C\C[C@@H]1[C@@H](c2ccc(C(O)C3CCCCC3)cc2)[C@H](O)C[C@H]1Cl (stereo partly specified)
Activity_index (Canis familiaris [3]): 1

Structure (SMILES): CCCCCC(O)c1ccc([C@@H]2[C@@H](C/C=C\CCCC(=O)OC(C)C)[C@H](Cl)C[C@H]2Cl)cc1 (stereo partly specified)
Activity (Rhesus monkey [4]): 19 mmHg

pEC50 ([1]; hek293): 4.30
pKi ([2]; hek293): 4.30
Structure (SMILES): CCCCCC(O)c1cccc([C@H]2CCC(=O)[C@@H]2CCCCCCC(=O)OC)c1 (stereo partly specified)

Structure (SMILES): O=C(O)CCC/C=C\C[C@@H]1[C@@H](c2ccc3c(c2)CCC3O)[C@H](O)C[C@H]1Cl (stereo partly specified)
Activity_index (Canis familiaris [5]): 1
Activity (Rhesus monkey [6]): 7 mmHg

Structure (SMILES): CC(C)OC(=O)CCC/C=C\C[C@@H]1[C@@H](c2ccc(C(O)C3CCCCC3)cc2)[C@H](O)C[C@H]1Cl (stereo partly specified)
Activity (Rhesus monkey [7]): 5 mmHg

Structure (SMILES): CCCCCC(=O)c1ccc([C@@H]2[C@@H](C/C=C\CCCC(=O)OC(C)C)[C@H](Cl)C[C@H]2O)cc1
Activity (Rhesus monkey [4]): 20 mmHg

Structure (SMILES): CCCCCC(=O)c1ccc([C@@H]2[C@@H](C/C=C\CCCC(=O)O)[C@H](Cl)C[C@H]2O)cc1
Activity (Rhesus monkey [4]): 31 mmHg

pEC50 ([1]; hek293): 4.30
pKi ([2]; hek293): 4.30
Structure (SMILES): CCCCCC(O)c1ccc([C@H]2CCC=C2CCCCCCC(=O)OC)cc1 (stereo partly specified)

pEC50 ([1]; hek293): 4.30
pKi ([2]; hek293): 4.30
Structure (SMILES): CCCCCC(O)c1ccc([C@H]2CC[C@@H](F)[C@@H]2CCCCCCC(=O)OC)cc1 (stereo partly specified)

pEC50 [1]: 7.51
pKi [8]: 5.55
Structure (SMILES): CCCCCC(=O)c1ccc([C@H]2[C@H](O)CC(=O)[C@@H]2C/C=C\CCCC(=O)O)cc1

Structure (SMILES): CC(C)OC(=O)CCCCCC[C@@H]1[C@@H](c2ccc(C(C)(C)C)cc2)[C@H](O)C[C@H]1Cl
Activity (Rhesus monkey [7]): 8 mmHg

Structure (SMILES): CCCCCC(O)c1ccc([C@H]2CC[C@@H](Cl)[C@@H]2CCCCCCCO)cc1 (stereo partly specified)
pEC50 [1]: 4.30
pKi [2]: 4.30

Structure (SMILES): CC(C)OC(=O)CCC/C=C\C[C@@H]1[C@@H](c2ccc(C(C)(C)CO)cc2)[C@H](O)C[C@H]1Cl
Activity (Rhesus monkey [4]): 6 mmHg

From ChEMBL document CHEMBL3882734, “Therapeutic compounds” (2010)
